What was measured:
JAK1 = JAK1 (Homo sapiens (Human), UniProt P23458); test: Jak Biochemical HTRF Assay, JAK1; details: HTRF biochemical assay, GST-tagged catalytic domain; top concentration tested […]; read-out: JAK1 IC50
Source text: (§1) Jak Biochemical HTRF Assay Protocol
(§2) Subsequent reagent additions employed an Agilent Bravo.

JAK2 = JAK2 (Homo sapiens (Human), UniProt O60674); test: Jak Biochemical HTRF Assay, JAK2; details: HTRF biochemical assay, GST-tagged catalytic domain; top concentration tested […]
JAK2, sequence (O60674 849-1124): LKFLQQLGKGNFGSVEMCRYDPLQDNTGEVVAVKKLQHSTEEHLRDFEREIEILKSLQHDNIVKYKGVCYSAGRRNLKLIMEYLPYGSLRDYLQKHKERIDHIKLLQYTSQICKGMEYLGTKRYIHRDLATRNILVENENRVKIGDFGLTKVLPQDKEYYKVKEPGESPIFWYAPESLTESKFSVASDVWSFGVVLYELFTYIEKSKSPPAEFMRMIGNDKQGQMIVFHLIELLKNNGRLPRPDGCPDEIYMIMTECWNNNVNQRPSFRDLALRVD
Source text: as §1, §2

JAK1, sequence (P23458 875-1153): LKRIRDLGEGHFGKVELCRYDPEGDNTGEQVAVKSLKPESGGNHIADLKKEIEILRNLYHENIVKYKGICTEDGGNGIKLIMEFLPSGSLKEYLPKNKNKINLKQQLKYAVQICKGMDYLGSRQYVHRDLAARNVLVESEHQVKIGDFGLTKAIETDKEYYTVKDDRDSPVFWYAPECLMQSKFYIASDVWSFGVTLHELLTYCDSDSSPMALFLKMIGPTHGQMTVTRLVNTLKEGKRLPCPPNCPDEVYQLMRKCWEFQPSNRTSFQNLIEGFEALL

## N#CCC1(n2cc(C(N)=O)c(Nc3ccc(F)cc3)n2)CCN(c2cccnc2F)CC1 [Example 3-51, 1-[4-(cyanomethyl)-1-(2-fluoropyridin-3-yl)piperidin-4-yl]-3-[(4-fluorophenyl)amino]-1H-pyrazole-4-carboxamide]
JAK1
  IC50: 0.06 nM
JAK2
  IC50: 0.6 nM

## Cc1ccc(N2CCC(CC#N)(n3cc(C(N)=O)c(Nc4ccc(F)cc4)n3)CC2)cn1 [Example 3-52, 1-[4-(cyanomethyl)-1-(6-methylpyridin-3-yl)piperidin-4-yl]-3-[(4-fluorophenyl)amino]-1H-pyrazole-4-carboxamide]
JAK1
  IC50: 0.4 nM
JAK2
  IC50: 8 nM

## COc1ccc(N2CCC(CC#N)(n3cc(C(N)=O)c(Nc4ccc(F)cc4)n3)CC2)cn1 [Example 3-53, 1-[4-(cyanomethyl)-1-(6-methoxypyridin-3-yl)piperidin-4-yl]-3-[(4-fluorophenyl)amino]-1H-pyrazole-4-carboxamide]
JAK1
  IC50: 0.4 nM
JAK2
  IC50: 9 nM

## N#CCC1(n2cc(C(N)=O)c(Nc3ccc(F)cc3)n2)CCN(c2cccc(F)n2)CC1 [Example 3-54, 1-[4-(cyanomethyl)-1-(6-fluoropyridin-2-yl)piperidin-4-yl]-3-[(4-fluorophenyl)amino]-1H-pyrazole-4-carboxamide]
JAK1
  IC50: 0.3 nM
JAK2
  IC50: 4 nM

## N#CCC1(n2cc(C(N)=O)c(Nc3ccc(F)cc3)n2)CCN(c2cc(C(F)(F)F)ccn2)CC1 [Example 3-55, 1-{4-(cyanomethyl)-1-[4-(trifluoromethyl)pyridin-2-yl]piperidin-4-yl}-3-[(4-fluorophenyl)amino]-1H-pyrazole-4-carboxamide]
JAK1
  IC50: 1 nM
JAK2
  IC50: 75 nM

## Cc1cc(N2CCC(CC#N)(n3cc(C(N)=O)c(Nc4ccc(F)cc4)n3)CC2)cnc1F [Example 3-56, 1-[4-(cyanomethyl)-1-(6-fluoro-5-methylpyridin-3-yl)piperidin-4-yl]-3-[(4-fluorophenyl)amino]-1H-pyrazole-4-carboxamide]
JAK1
  IC50: 1 nM
JAK2
  IC50: 23 nM

## CC(C)(C)OC(=O)N1CCC(CC#N)(n2cc(C(N)=O)c(Nc3ccc(S(C)(=O)=O)cc3)n2)CC1 [Example 4-1, tert-Butyl 4-(4-carbamoyl-3-{[4-(methylsulfonyl)phenyl]amino}-1H-pyrazol-1-yl)-4-(cyanomethyl)piperidine-1-carboxylate]
JAK1
  IC50: 0.1 nM
JAK2
  IC50: 1 nM

## CC(C)OC(=O)c1ccc(Nc2nn(C3(CC#N)CCN(C(=O)OC(C)(C)C)CC3)cc2C(N)=O)cc1 [Example 4-2, tert-butyl 4-[4-carbamoyl-3-({4-[(1-methylethoxy)carbonyl]phenyl}amino)-1H-pyrazol-1-yl]-4-(cyanomethyl)piperidine-1-carboxylate]
JAK1
  IC50: 2 nM
JAK2
  IC50: 20 nM

## CC(C)(C)OC(=O)N1CCC(CC#N)(n2cc(C(N)=O)c(Nc3cccc(Cn4ccnc4)c3)n2)CC1 [Example 4-3, tert-butyl 4-(4-carbamoyl-3-{[3-(1H-imidazol-1-ylmethyl)phenyl]amino}-1H-pyrazol-1-yl)-4-(cyanomethyl)piperidine-1-carboxylate]
JAK1
  IC50: 0.6 nM
JAK2
  IC50: 11 nM

## N#CCC1(n2cc(C(N)=O)c(Nc3cccc(Cn4nnc5ccccc54)c3)n2)CCN(C(=O)OCC(F)(F)F)CC1 [Example 4-4, 2,2,2-trifluoroethyl 4-(3-{[3-(1H-benzotriazol-1-ylmethyl)phenyl]amino}-4-carbamoyl-1H-pyrazol-1-yl)-4-(cyanomethyl)piperidine-1-carboxylate]
JAK1
  IC50: 0.5 nM
JAK2
  IC50: 23 nM

## CC(C)(C)OC(=O)N1CCC(CC#N)(n2cc(C(N)=O)c(Nc3cnc(C#N)nc3)n2)CC1 [Example 4-6, tert-butyl 4-{4-carbamoyl-3-[(2-cyanopyrimidin-5-yl)amino]-1H-pyrazol-1-yl}-4-(cyanomethyl)piperidine-1-carboxylate]
JAK1
  IC50: 3 nM
JAK2
  IC50: 38 nM

## CC(C#N)C1(n2cc(C(N)=O)c(Nc3ccc(F)cc3)n2)CCN(C(=O)OC(C)(C)C)CC1 (stereo not shown) [Example 5-1, tert-Butyl 4-(4-carbamoyl-3-((4-fluorophenyl)amino)-1H-pyrazol-1-yl)-4-(1-cyanoethyl)piperidine-1-carboxylate]
JAK1
  IC50: 34 nM
JAK2
  IC50: 162 nM

## CC(C)(C)OC(=O)N1CCC(C(C#N)C2CC2)(n2cc(C(N)=O)c(Nc3ccc(F)cc3)n2)CC1 (stereo not shown) [Example 5-2, tert-butyl 4-{4-carbamoyl-3-[(4-fluorophenyl)amino]-1H-pyrazol-1-yl}-4-[cyano(cyclopropyl)methyl] piperidine-1-carboxylate]
JAK1
  IC50: 271 nM
JAK2
  IC50: 738 nM

## N#CCC1(n2cc(C(N)=O)c(Nc3ccc(F)cc3)n2)CCC2(CC1)OCCO2 [Example 6-6, 1-[8-(cyanomethyl)-1,4-dioxaspiro[4.5]dec-8-yl]-3-[(4-fluorophenyl)amino]-1H-pyrazole-4-carboxamide]
JAK1
  IC50: 7 nM
JAK2
  IC50: 48 nM

## CS(=O)(=O)c1ccc(Nc2nn(C3(CC#N)CCC4(CC3)OCCO4)cc2C(N)=O)cc1 [Example 6-7, 1-[8-(cyanomethyl)-1,4-dioxaspiro[4.5]dec-8-yl]-3-{[4-(methylsulfonyl)phenyl]amino}-1H-pyrazole-4-carboxamide]
JAK1
  IC50: 19 nM
JAK2
  IC50: 206 nM

## N#CCC1(n2cc(C(N)=O)c(Nc3ccc(F)cc3)n2)CCS(=O)(=O)CC1 [Example 8, 1-(4-(Cyanomethyl)-1,1-dioxidotetrahydro-2H-thiopyran-4-yl)-3-((4-fluorophenyl)amino)-1H-pyrazole-4-carboxamide]
JAK1
  IC50: 50 nM
JAK2
  IC50: 813 nM

## CC(C)(C)OC(=O)N1CCC(CC#N)(n2cc(C(N)=O)c(Nc3ccnc(F)c3)n2)CC1 [Example 9-1, tert-Butyl 4-{4-carbamoyl-3-[(2-fluoropyridin-4-yl)amino]-1H-pyrazol-1-yl}-4-(cyanomethyl)piperidine-1-carboxylate]
JAK1
  IC50: 0.2 nM
JAK2
  IC50: 5 nM

## COC(=O)c1ccc(Nc2nn(C3(CC#N)CCN(C(=O)OC(C)(C)C)CC3)cc2C(N)=O)cc1 [Example 9-2, tert-butyl 4-(4-carbamoyl-3-{[4-(methoxycarbonyl)phenyl]amino}-1H-pyrazol-1-yl)-4-(cyanomethyl)piperidine-1-carboxylate]
JAK1
  IC50: 0.3 nM
JAK2
  IC50: 9 nM

## CC(C)(C)OC(=O)N1CCC(CC#N)(n2cc(C(N)=O)c(Nc3ccc(F)cc3)n2)CC1 [Example 9-3, tert-butyl 4-{4-carbamoyl-3-[(4-fluorophenyl)amino]-1H-pyrazol-1-yl}-4-(cyanomethyl)piperidine-1-carboxylate]
JAK1
  IC50: 0.8 nM
JAK2
  IC50: 21 nM

## CNC(=O)c1ccc(Nc2nn(C3(CC#N)CCN(C(=O)OC(C)(C)C)CC3)cc2C(N)=O)cc1 [Example 9-4, tert-Butyl 4-[4-(aminocarbonyl)-3-({4-[(methylamino)carbonyl]phenyl}amino)-1H-pyrazol-1-yl]-4-(cyanomethyl)piperidine-1-carboxylate]
JAK1
  IC50: 0.1 nM
JAK2
  IC50: 2 nM

## CC(C)(C)OC(=O)N1CCC(CC#N)(n2cc(C(N)=O)c(Nc3ccc(C#N)cc3)n2)CC1 [Example 9-5, tert-butyl 4-{4-carbamoyl-3-[(4-cyanophenyl)amino]-1H-pyrazol-1-yl}-4-(cyanomethyl)piperidine-1-carboxylate]
JAK1
  IC50: 0.2 nM
JAK2
  IC50: 6 nM

## CC(C)(C)OC(=O)N1CCC(CC#N)(n2cc(C(N)=O)c(Nc3ccc(C(C)(C)O)nc3)n2)CC1 [Example 9-6, tert-butyl 4-(4-carbamoyl-3-(6-(2-hydroxypropan-2-yl)pyridin-3-ylamino)-1H-pyrazol-1-yl)-4-(cyanomethyl)piperidine-1-carboxylate]
JAK1
  IC50: 0.8 nM
JAK2
  IC50: 3 nM

## CC(O)c1ccc(Nc2nn(C3(CC#N)CCN(C(=O)OC(C)(C)C)CC3)cc2C(N)=O)cn1 (stereo not shown) [Example 9-7, tert-butyl 4-(4-carbamoyl-3-(6-(1-hydroxyethyl)pyridin-3-ylamino)-1H-pyrazol-1-yl)-4-(cyanomethyl)piperidine-1-carboxylate]
JAK1
  IC50: 0.5 nM
JAK2
  IC50: 2 nM

## CC(C)(C)OC(=O)N1CCC(CC#N)(n2cc(C(N)=O)c(Nc3ccc(C(C)(C)O)cc3)n2)CC1 [Example 9-8, tert-butyl 4-(4-carbamoyl-3-(4-(2-hydroxypropan-2-yl)phenylamino)-1H-pyrazol-1-yl)-4-(cyanomethyl)piperidine-1-carboxylate]
JAK1
  IC50: 0.3 nM
JAK2
  IC50: 3 nM

## CC(O)c1ccc(Nc2nn(C3(CC#N)CCN(C(=O)OC(C)(C)C)CC3)cc2C(N)=O)cc1 (stereo not shown) [Example 9-9, tert-butyl 4-(4-carbamoyl-3-(4-(1-hydroxyethyl)phenylamino)-1H-pyrazol-1-yl)-4-(cyanomethyl)piperidine-1-carboxylate]
JAK1
  IC50: 0.4 nM
JAK2
  IC50: 6 nM

## CC(=O)c1ccc(Nc2nn(C3(CC#N)CCN(C(=O)OC(C)(C)C)CC3)cc2C(N)=O)cc1 [Example 9-10, tert-butyl 4-(3-(4-acetylphenylamino)-4-carbamoyl-1H-pyrazol-1-yl)-4-(cyanomethyl)piperidine-1-carboxylate]
JAK1
  IC50: 0.2 nM
JAK2
  IC50: 3 nM

## CC(C)(C)OC(=O)N1CCC(CC#N)(n2cc(C(N)=O)c(Nc3ccc(C(=O)C(F)(F)F)cc3)n2)CC1 [Example 9-11, tert-butyl 4-(4-carbamoyl-3-{[4-(trifluoroacetyl)phenyl]amino}-1H-pyrazol-1-yl)-4-(cyanomethyl)piperidine-1-carboxylate]
JAK1
  IC50: 0.2 nM
JAK2
  IC50: 3 nM

## CC(C)(C)OC(=O)N1CCC(CC#N)(n2cc(C(N)=O)c(Nc3ccc(C#N)nc3)n2)CC1 [Example 9-12, tert-butyl 4-{4-carbamoyl-3-[(6-cyanopyridin-3-yl)amino]-1H-pyrazol-1-yl}-4-(cyanomethyl)piperidine-1-carboxylate]
JAK1
  IC50: 0.5 nM
JAK2
  IC50: 6 nM

## Cn1ccc(-c2ccc(Nc3nn(C4(CC#N)CCN(C(=O)OC(C)(C)C)CC4)cc3C(N)=O)cc2)n1 [Example 9-13, tert-butyl 4-(4-carbamoyl-3-{[4-(1-methyl-1H-pyrazol-3-yl)phenyl]amino}-1H-pyrazol-1-yl)-4-(cyanomethyl)piperidine-1-carboxylate]
JAK1
  IC50: 3 nM
JAK2
  IC50: 138 nM

— patent US9328099B2, “Cyanomethylpyrazole carboxamides as janus kinase inhibitors” (Merck Sharp & Dohme Corp., priority 2011, dated 2016)
